Test results reported in BindingDB's records for doi:10.3109/14756366.2012.663362 (Institute for Advanced Studies in Basic Sciences (IASBS), 2013).

Target: Acetylcholinesterase (Electrophorus electricus, UniProt O42275)
Test: AChE Inhibition Assay
Settings: pH 8; 25 °C
Experimental: Inhibitory activities of synthesized α-oxycarbanilinophosphonates were determined at 25°C by the colorimetric method of Ellman et al. [Ellman et al., Biochem. Pharmacol., 7:88-95]. The assay solution contained 0.1 M phosphate buffer, pH 8, 0.3 mM 5,5'-dithiobis(2-nitrobenzoic acid) (DTNB), 0.125 units of AChE (Sigma Chemical Co. from electric eel (Electrophorous electricus)), and 0.2 mM acetylthiocholine iodide as the substrate in a total volume of 2.5 mL. In order to provide sufficient time for interaction with either PAS and/or active site of the enzyme, particularly in competition with the substrate, the synthesized compounds were added to the assay solution and preincubated with the enzyme for 10 min at 25°C. In order to solubilize the synthesized compounds, the reaction mixture contained 2% ethanol (50 μL in 2.5 mL reaction mixture volume). Control experiments were run and it was seen that no inhibitory effect was exerted on the enzyme by ethanol. The changes in abs

Sequence of Acetylcholinesterase (O42275 whole entry): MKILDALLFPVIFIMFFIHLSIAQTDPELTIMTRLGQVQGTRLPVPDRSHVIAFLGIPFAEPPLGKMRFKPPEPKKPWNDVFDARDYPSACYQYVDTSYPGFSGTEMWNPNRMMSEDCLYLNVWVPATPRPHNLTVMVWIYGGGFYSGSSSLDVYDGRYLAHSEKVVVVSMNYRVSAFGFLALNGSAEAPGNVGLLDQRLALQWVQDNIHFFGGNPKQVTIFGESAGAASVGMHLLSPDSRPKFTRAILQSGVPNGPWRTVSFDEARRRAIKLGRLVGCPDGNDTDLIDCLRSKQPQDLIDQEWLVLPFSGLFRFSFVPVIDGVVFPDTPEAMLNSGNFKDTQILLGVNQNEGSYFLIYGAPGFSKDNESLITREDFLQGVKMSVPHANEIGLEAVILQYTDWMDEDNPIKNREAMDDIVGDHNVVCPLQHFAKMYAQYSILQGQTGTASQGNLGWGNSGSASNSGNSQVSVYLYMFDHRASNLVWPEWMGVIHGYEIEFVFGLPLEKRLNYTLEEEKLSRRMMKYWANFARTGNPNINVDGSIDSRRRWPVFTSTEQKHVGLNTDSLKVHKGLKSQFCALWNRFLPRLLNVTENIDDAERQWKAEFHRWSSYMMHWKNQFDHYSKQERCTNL

SMILES | IC50
CCOP(=O)(OCC)C(OC(=O)Nc1ccc(C)c(Cl)c1)c1ccc(Cl)cc1Cl (stereo not given) [Diethyl[(3-chloro-4-methylanilinocarbonyl)oxy](2,4-dichlorophenyl)methyl phosphonate (4h)] | 6.36 µM
CCOP(=O)(OCC)C(OC(=O)Nc1ccccc1)c1ccc(SC)cc1 (stereo not drawn) [α-Oxycarbanilinophosphonate, 4d] | 161 µM
CCOP(=O)(OCC)C(/C=C/c1ccccc1[N+](=O)[O-])OC(=O)Nc1ccccc1 (stereo not drawn) [α-Oxycarbanilinophosphonate, 4f] | 10.3 µM
CCOP(=O)(OCC)C(OC(=O)Nc1ccc(C)c(Cl)c1)c1ccc([N+](=O)[O-])cc1 (stereo not drawn) [α-Oxycarbanilinophosphonate, 4i] | 7.47 µM
CCOP(=O)(OCC)C(OC(=O)NCc1ccccc1)c1cccc2ccccc12 (stereo not drawn) [α-Oxycarbanilinophosphonate, 4l] | 418 µM
